Measurements reported in ChEMBL document CHEMBL5214997, “6-Thioguanosine Monophosphate Prodrugs Display Enhanced Performance against Thiopurine-Resistant Leukemia and Breast Cancer Cells” (J Med Chem, 2022).
Active and inactive are the calls of the source. The calls are words filed in the database; no cut-off is given here.

Experiments:
HEK-293T [1] = test: Antiproliferative activity against HEK293T cells with high HGPRT expression incubated for 48 hrs by CellTiter-Glo2 assay; format: functional, cell-based; settings: Homo sapiens
THP-1 = test: Antiproliferative activity against human THP-1 cells with low HGPRT expression incubated for 48 hrs by CellTiter-Glo2 assay; format: functional, cell-based; settings: THP-1, 48 h
SK-BR-3 [2] = test: Antiproliferative activity against human SK-BR-3 cells with low HGPRT expression incubated for 48 hrs by CellTiter-Glo2 assay; format: functional, cell-based; settings: SK-BR-3, 48 h
HEK-293T [3] = test: Effect on p21 mRNA expression in HEK293T cells assessed as increase in labeling efficiency at 100 uM incubated for 16 hrs and measured by TUC-Seq DUAL method; format: functional, cell-based; settings: Homo sapiens
K562 [4] = test: Antiproliferative activity against human K562 cells with low HGPRT expression incubated for 48 hrs by CellTiter-Glo2 assay; format: functional, cell-based; settings: K562, 48 h
[5] = Effect on CCNT1 mRNA expression in HEK293T cells assessed as percentage of labeled transcripts at 100 uM incubated for 2 hrs and measured by TUC-Seq DUAL method; format: functional, Homo sapiens, HEK-293T
[6] = Effect on p21 mRNA expression in HEK293T cells assessed as percentage of labeled transcripts at 100 uM incubated for 2 hrs and measured by TUC-Seq DUAL method; format: functional, Homo sapiens, HEK-293T
[7] = Effect on ND1 mRNA expression in HEK293T cells assessed as percentage of labeled transcripts at 100 uM incubated for 2 hrs and measured by TUC-Seq DUAL method; format: functional, Homo sapiens, HEK-293T
K562 [8] = test: Antiproliferative activity against human K562 cells with low HGPRT expression assessed as cell survival at 1000 uM and incubated for 48 hrs by CellTiter-Glo2 assay; format: functional; settings: read-out: Activity
SK-BR-3 [9] = test: Drug resistance of human SK-BR-3 cells assessed as percentage of resistant cells at 1 mM; format: functional
K562 [10] = test: Downregulation of HGPRT mRNA expression in human K562 cells at 1 mM measured after 48 hrs by qPCR analysis; format: functional, cell-based
SK-BR-3 [11] = test: Downregulation of HGPRT mRNA expression in human SK-BR-3 cells at 1 mM measured after 48 hrs by qPCR analysis; format: functional, cell-based

Nc1nc2c(ncn2[C@@H]2O[C@H](COP3(=O)OCc4ccccc4O3)[C@@H](O)[C@H]2O)c(=S)[nH]1 (some centres not stated)
EC50 (HEK-293T [1]): 14 µM | EC50 (THP-1): 1400 nM | EC50 (SK-BR-3 [2]): 25 µM | Activity (HEK-293T [3]): Active | EC50 (K562 [4]): 7.2 µM

CC(=O)Oc1ccc(COP(=O)(O)OC[C@H]2O[C@@H](n3cnc4c(=S)[nH]c(N)nc43)[C@H](O)[C@@H]2O)cc1
EC50 (HEK-293T [1]): 6.9 µM | EC50 (THP-1): 670 nM | EC50 (SK-BR-3 [2]): 201 µM | Activity (HEK-293T [3]): Active | EC50 (K562 [4]): 2.3 µM

Nc1nc2c(ncn2[C@@H]2O[C@H](COP3(=O)OCc4cc(Cl)ccc4O3)[C@@H](O)[C@H]2O)c(=S)[nH]1 (some centres not stated)
EC50 (HEK-293T [1]): 15 µM | EC50 (THP-1): 400 nM | EC50 (SK-BR-3 [2]): 42 µM | Activity (HEK-293T [3]): Active | EC50 (K562 [4]): 5.6 µM

Nc1nc(=S)c2ncn([C@@H]3O[C@H](CO)[C@@H](O)[C@H]3O)c2[nH]1 [THIOGUANOSINE]
EC50 (HEK-293T [1]): 4.7 µM | EC50 (THP-1): 350 nM | Activity [5]: 2.5% | EC50 (K562 [4]): 1.3 µM | Activity [6]: 2.5% | Activity [7]: 2.5%

CC(C)(C)C(=O)SCCOP(=O)(OCCSC(=O)C(C)(C)C)OC[C@H]1O[C@@H](n2cnc3c(=S)[nH]c(N)nc32)[C@H](O)[C@@H]1O
EC50 (HEK-293T [1]): 246 µM | EC50 (THP-1): 8400 nM | EC50 (K562 [4]): 62 µM

CCC(CC)COC(=O)[C@H](C)NP(=O)(OC[C@H]1O[C@@H](n2cnc3c(=S)[nH]c(N)nc32)[C@H](O)[C@@H]1O)Oc1ccccc1 (some centres not stated)
EC50 (THP-1): 33000 nM | EC50 (K562 [4]): 92 µM

CC(=O)Oc1ccc(COP(=O)(OCc2ccc(OC(C)=O)cc2)OC[C@H]2O[C@@H](n3cnc4c(SCc5ccc(OC(C)=O)cc5)nc(N)nc43)[C@H](O)[C@@H]2O)cc1
EC50 (HEK-293T [1]): 6.7 µM | EC50 (THP-1): 340 nM | EC50 (SK-BR-3 [2]): 3.5 µM | EC50 (K562 [4]): 2.6 µM

Nc1nc2[nH]cnc2c(=S)[nH]1 [THIOGUANINE]
viability at 1000 µM (K562 [8]): 15% | Activity (SK-BR-3 [9]): 40% | EC50 (HEK-293T [1]): 3.6 µM | EC50 (THP-1): 270 nM | Activity (K562 [10]): Active | EC50 (K562 [4]): 0.74 µM | Activity (SK-BR-3 [11]): Active
